Measured values as given in PMC11039641, “Structural and biochemical analysis of family 92 carbohydrate-binding modules uncovers multivalent binding to β-glucans” (Nature Communications, 2024).

Assays:
[1] = target: T1, CpCBM92A (Chitinophaga pinensis, UniProt A0A979GQH9); test: isothermal titration calorimetry; conditions: 50 mM sodium phosphate pH 6.5; three equivalent binding sites (N fixed to 3)
T1 construct: gene Cpin_2580; single CBM92 domain (three WExF motifs incl. W481, W523, W565), borders only in supplement; pET21a, C-terminal His6, E. coli BL21 (DE3)
Text: isothermal titration calorimetry on CpCBM92A

[2] = target: T2, CpCBM92B (Chitinophaga pinensis, UniProt A0A979GQH9); test: X-ray crystallography of soaked crystal; assay type: binding; conditions: sites in alpha, beta and gamma subdomains, saturating ligand soak
T2 construct: gene Cpin_2580; single CBM92 domain (incl. Arg955, Asp959 of beta subdomain), locus and borders only in supplement; His6-tagged, E. coli BL21 (DE3)
T2 sequence (A0A979GQH9 entry or part of it): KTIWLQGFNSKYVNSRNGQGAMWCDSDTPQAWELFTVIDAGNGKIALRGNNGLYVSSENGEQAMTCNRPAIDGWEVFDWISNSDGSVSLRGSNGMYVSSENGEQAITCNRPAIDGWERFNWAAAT

T1 sequence (A0A979GQH9 entry or part of it): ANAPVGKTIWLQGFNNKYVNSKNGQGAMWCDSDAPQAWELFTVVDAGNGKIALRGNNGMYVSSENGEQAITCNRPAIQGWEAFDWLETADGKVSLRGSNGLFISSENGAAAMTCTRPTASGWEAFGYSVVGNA

SMILES | Kd [1] | X-ray crystallography of soaked crystal ([2]; non-reducing end sugar in cleft) | X-ray crystallography of soaked crystal [2]
OC[C@H]1O[C@@H](OC[C@H]2OC(O)[C@H](O)[C@@H](O)[C@@H]2O)[C@H](O)[C@@H](O)[C@@H]1O (stereo partly drawn) [G2, gentiobiose] | 202 ± 40 µM | Adding either G2 or S2 to the protein crystals led to binding | –
OC[C@H]1O[C@@H](O[C@H]2C(O)O[C@H](CO)[C@@H](O)[C@@H]2O)[C@H](O)[C@@H](O)[C@@H]1O (stereo partly drawn) [S2, sophorose] | 882 ± 107 µM | – | Adding either G2 or S2 to the protein crystals led to binding
OC[C@H]1OC(O)[C@H](O)[C@@H](O)[C@@H]1O (stereo partly drawn) [glucose] | 1840 ± 200 µM | – | Soaking experiments of the CpCBM92B protein crystals with glucose, gentiobiose
